Molecules are shown by their SMILES.

The text below walks through data of US12357626B2, “Anthranilic acid-based compound, and Pin1 inhibitor, therapeutic agent for inflammatory diseases and therapeutic agent for cancer that use the same” (Amenis Bioscience, Inc., priority 2017, dated 2025).

Data set [1] relates to NASH mice (methionine-choline-deficient diet, MCDD). Nature of the data set: NASH treatment study in MCDD-fed NASH mice. The conditions noted are these: NASH mice given MCDD for 8 weeks; intraperitoneal 2.5 mg/kg/day three times a week; FIG. 3. Format: in vivo, mice (C57BL/6J). The protocol:
Next, an animal experiment was performed on NASH mice that were produced by feeding a methionine-choline-deficient diet (MCDD).

Data set [2] has as its system non-alcoholic steatohepatitis (NASH) model mice (HFDT). Conditions: intraperitoneal 2.5 mg/kg/day three times a week. The protocol:
Animal experiments were performed using non-alcoholic steatohepatitis (NASH) model mice to test the compounds according to the present invention for the therapeutic effect on NASH.
NASH model mice (hereinafter referred to as “NASH mice”) were produced by feeding a high-fat diet containing trans fatty acids (HFDT) to individual male laboratory mice (C57BL/6J) for 8 weeks. The mice were divided into groups, and animal experiments were performed on a group of mice to which a compound according to the present invention (H-77) was administered intraperitoneally at a dose of 2.5 mg/kg/day three times a week, and a group of mice to which Juglone, a known Pin1 inhibitor, was administered intraperitoneally at a dose of 2.5 mg/kg/day three times a week, and a group of mice to which nothing was administered, during the 8-week HFDT feeding period. In addition, a normal diet was given to individual male laboratory mice (C57BL/6J) for 8 weeks to prepare control mice.

The target in a further data set is T1, Pin1 (Homo sapiens, UniProt Q13526).
T1 construct: endogenous in cells; host or cells: 293T cells
T1 sequence (Q13526 whole entry): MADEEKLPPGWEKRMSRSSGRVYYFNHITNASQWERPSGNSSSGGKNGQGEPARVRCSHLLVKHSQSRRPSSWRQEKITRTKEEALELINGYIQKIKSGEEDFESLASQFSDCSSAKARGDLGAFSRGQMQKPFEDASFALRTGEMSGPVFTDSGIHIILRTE
The experiment in a line: Cell-based evaluation of Pin1 inhibition activity with AMPK phosphorylation level as index (293T cells, Western blot). More on the design: key: +++: a higher level of AMPK phosphorylation is promoted, as compared with C1; ++: a similar level of AMPK phosphorylation is promoted, as compared with C1; +: a lower level of AMPK phosphorylation is promoted, as compared with C1; −: no or almost no promotion is found in AMPK phosphorylation. Conditions: compound at 100 μM, 30 minutes, then 10 mM 2-DG for one hour, pAMPK level compared with C1. Here is the method:
To evaluate the inhibitory activity of each compound synthesized in Example 1 against the function of Pin1, a cell-based assay was performed according to the method previously developed by the inventors (Yusuke Nakatsu et al., Journal of Biological Chemistry, 2015, Vol. 290, No. 40, pp. 24255-24266), in which the phosphorylation level of AMPK (AMP-activated protein kinase), a protein whose phosphorylation is inhibited by Pin1, was examined as an index.
Briefly, 293T cells were plated on a collagen-coated 24-well plate. Forty-eight hours later, each compound synthesized in the preceding example (at 100 μM) was added to the plate, and the plate was left to stand in an incubator for 30 minutes. Subsequently, 10 mM 2-DG was added to the plate, and one hour later, each sample was collected with a buffer containing mercaptoethanol and SDS.
SDS-PAGE and blotting were performed, and blocking was then performed with 3% BSA for 1 hour, according to conventional protocols. Subsequently, a pAMPK antibody (Cell Signaling; diluted 1:2000 in Can Get Signal Solution 1, Toyobo) as a primary antibody, and an HRP-linked anti rabbit IgG (GE Healthcare; diluted 1:4000 in Can Get Signal Solution 2, Toyobo) as a secondary antibody were allowed to react at ambient temperature for 1 hour prior to detection.
The inhibitory activity against the function of Pin1 was evaluated by comparing the inhibition levels between each compound and a known Pin1 inhibitor, C1, as indicated below:
(+++): a higher level of AMPK phosphorylation is promoted, as compared with C1;
(++): a similar level of AMPK phosphorylation is promoted, as compared with C1;
(+): a lower level of AMPK phosphorylation is promoted, as compared with C1;
(−): no or almost no promotion is found in AMPK phosphorylation.
On the technique in general: In western blotting, separated proteins are transferred to a membrane and probed.

For another data set, the system named is DU145 cells. The experiment in a line: Cancer treatment study in nude mice implanted with DU145 tumors. The class given is in vivo, nude mice (BALB/c-slc-nu/nu mice). Conditions: intraperitoneal 2.5 mg/kg/day 5 times a week for 9 weeks, versus control mice. The protocol: An animal experiment was performed using mice transplanted with cancer cells to test the therapeutic effects of the compounds according to the present invention on cancer.
A first tumor (DU145 cells) with Matrigel plug was implanted in the middle of the upper back of nude mice (BALB/c-slc-nu/nu mice).
Five weeks after the first implantation, a second tumor (DU145 cells) was implanted in the middle of the left and right sides of the back of the nude mice.
Intraperitoneal administration of a compound according to the present invention, H-77, at a dose of 2.5 mg/kg/day and a frequency of 5 times a week was started 6 weeks after the first implantation, at which the first tumor became measurable (at this timing, the second tumor was so small in size and not measurable), and was continued for 9 weeks. No compound was administered to a group of mice to prepare control mice.
The volume of the second tumor was so small and not measurable at the beginning of administration of the compound. Therefore, the result from the second tumor is expressed in volume (mm^3), but not in ratio.

As for `O=C(Nc1ccc(OCc2ccccc2)cc1C(=O)O)c1ccc2ccccc2c1` [Compound H-77], the “hepatic fibrosis (liver tissue sections with Azan staining)” value in data set [1] is on record as “hepatic fibrosis was significantly inhibited”. Besides, the liver weight result in data set [2] (NASH mice given HFDT for 8 weeks, FIG. 1 (A)) is recorded as “increase in liver weight was reduced”. Also, in data set [2] (NASH mice given HFDT for 8 weeks, FIG. 1 (B)), the “blood AST (GOT) concentration” value was “AST value was decreased”. In data set [2] (NASH mice given HFDT, FIG. 2), the “fat accumulation in liver tissue (microscopic observation of sections)” value was “reduced fat accumulation”. In addition, the Pin1 inhibition activity result on Pin1 is recorded as “+++”. Also, in the data set with DU145 cells (first DU145 tumor, FIG. 4 (A)), the “tumor volume ratio of the first tumor” value was “tumor size growth was suppressed”. Also, the “volume of the second tumor” value with DU145 cells (second DU145 tumor, FIG. 4 (B)) is “tumor size growth was suppressed”. In the case of `Nc1ccc(OCc2ccc3ccccc3c2)cc1C(=O)O` [Compound H-443], the Pin1 inhibition activity entry on Pin1 is “+”. As for `O=C1C=CC(=O)c2c(O)cccc21` [Juglone, reference compound], in data set [2] (NASH mice given HFDT for 8 weeks), the “death of the mice during the study” value is listed as “all dead within 8 weeks”. For the molecule `O=C(O)c1cc(OCc2ccc3ccccc3c2)ccc1NS(=O)(=O)c1ccc2ccccc2c1` [Compound H-376], the Pin1 inhibition activity entry at Pin1 is given as “+”. Consider `COC(=O)c1cc(OCc2ccc3ccccc3c2)ccc1N` [Compound H-300], for which the Pin1 inhibition activity entry on Pin1 is given as “+++”. Take `O=C(Nc1ccc(OCc2ccccc2)cc1C(=O)O)c1ccc2ccccc2n1` [Compound H-339]: the Pin1 inhibition activity entry on Pin1 is recorded as “+”.

Consider `O=C(COc1ccc2ccccc2c1)Nc1ccc(OCc2ccccc2)cc1C(=O)O` [Compound H-362], for which, on Pin1, the Pin1 inhibition activity entry is on record as “+”. With `COC(=O)c1cc(OCc2ccc3ccccc3c2)ccc1NC(C)=O` [Compound H-182], the Pin1 inhibition activity result at Pin1 is on record as “++”. For the molecule `CC(=O)Nc1ccc(OCc2ccc3ccccc3c2)cc1C(=O)O` [Compound H-297], the Pin1 inhibition activity result at Pin1 is reported as “+++”. Turning to `COC(=O)c1cc(OCc2ccccc2)ccc1NC(=O)c1ccc2ccccc2c1` [Compound H-68], at Pin1, the Pin1 inhibition activity result is “+”. Consider `O=C(O)c1cc(OCc2ccccc2)ccc1NS(=O)(=O)c1ccc2ccccc2c1` [Compound H-338], for which the Pin1 inhibition activity result on Pin1 is on record as “+”.

For the molecule `O=C(O)c1cc(OCc2ccccc2)ccc1NC(=O)c1cccc2ccccc12` [Compound H-370], the Pin1 inhibition activity entry at Pin1 is recorded as “+”. Same read-out and setting: then `O=C(Nc1ccc(OCc2ccc3ccccc3c2)cc1C(=O)O)c1ccc2ccccc2c1` [Compound H-371], with “+”; and `O=C(Nc1ccc(OCc2ccccc2)cc1C(=O)O)c1cccc(Oc2ccccc2)c1` [Compound H-363], with “+”; and `CC(=O)Nc1ccc(OCc2ccccc2)cc1C(=O)O` [Compound H-296, reference compound], with “−”.
